Reference: US11691949B2, “Quinoline sulfonamide compounds and their use as antibacterial agents” (OTAGO INNOVATION LIMITED, priority 2017, dated 2023)
In brackets after ≈: the same amount, converted by molar mass. Where two headings read alike, the source gives them in different places.

What was measured:
Format in all cases: cell-based
E. coli ATCC 10596 = assay: MIC by broth microdilution, E. coli; conditions: Escherichia coli, read-out: E. coli ATCC 10536 MIC
Method: (§1) Antibacterial susceptibility testing was performed in triplicate (biological) by measuring minimum inhibitory concentrations (MICs) by broth microdilution in 96-well flat bottom microtiter plates (ThermoFisher Scientific, New Zealand). S. uberis ATCC 19436, S. aureus ATCC 6538, or E. coli ATCC 10596 cells grown overnight were diluted to an OD600 of approximately 0.025, so that the final concentration of cells in the MIC assay was approximately 5×10^5 cfu/mL in media as follows: S. uberis; Todd Hewitt Broth (THB), S. aureus; Tryptic Soy Broth (TSB) and Cation Adjusted Muller Hinton Broth (CAMHB), and E. coli; Lysogeny Borth (LB) and CAMHB, before being dispensed into microtiter wells. As required additional sterile Zinc Sulphate (Heptahydrate) was supplemented into the media, so the final concentration was 50 μM. Test compounds were added to starting wells and two-fold serial dilutions were undertaken to generate a range of inhibitor concentrations at a final volume of 200 μl. Media and test compound-free (untreated) controls were included in each microtiter plate in triplicate. After 24 h incubation at 37° C. and 200 rpm, the OD600 of wells were read using a Varioskan Flash plate reader (ThermoFisher Scientific, New Zealand). The MIC was reported as the lowest concentration of the test compound for which no growth occurred, as determined by OD600 readings. The minimum bactericidal concentration (MBC) was determined using the Miles-Misra drop-plate method to measure the viability of cells in response to test compound challenge.

S. aureus ATCC 6538 = assay: MIC by broth microdilution, S. aureus; conditions: Staphylococcus aureus, read-out: S. aureus ATCC 6538 MIC
Method: as §1

S. uberis ATCC 19436 = assay: MIC by broth microdilution, S. uberis; conditions: Streptococcus uberis, read-out: S. uberis ATCC 19436 MIC
Method: as §1

[1] = ATCC 10536 / ATCC 10596, No Zinc
[2] = ATCC 10536 / ATCC 10596, Zinc (50 μM)

Row | Compound | MIC (E. coli ATCC 10596; [1]) [µg/mL] | MIC (E. coli ATCC 10596; [2]) [µg/mL] | MIC (S. aureus ATCC 6538; ATCC6538, No Zinc) [µg/mL] | MIC (S. aureus ATCC 6538; ATCC6538, Zinc (50 μM)) [µg/mL] | MIC (S. uberis ATCC 19436; ATCC19436, No Zinc) [µg/mL] | MIC (S. uberis ATCC 19436; ATCC19436, Zinc (50 μM)) [µg/mL]
1 | O=S(=O)(Nc1cccc2ccc(CNCc3cccnc3)nc12)c1ccc(C(F)(F)F)cc1 [ZDR101, N-(2-(((Pyridin-3-ylmethyl)amino)methyl)quinolin-8-yl)-4-(trifluoromethyl)benzenesulfonamide] | 128 (≈ 271 µM) | > 256 | 64 (≈ 135 µM) | 64 (≈ 135 µM) | > 256 | 4 (≈ 8.47 µM)
2 | CN(C)Cc1ccc2cccc(NS(=O)(=O)C3CC3)c2n1 [ZDR323, N-(2-((Dimethylamino)methyl)quinolin-8-yl)cyclopropanesulfonamide] | > 256 | > 256 | > 256 | 256 (≈ 838 µM) | > 256 | 1 (≈ 3.27 µM)
3 | Cc1cc(CS(=O)(=O)Nc2cccc3ccc(CN(C)C)nc23)no1 [ZDR501, N-(2-((Dimethylamino)methyl)quinolin-8-yl)-1-(5-methylisoxazol-3-yl)methanesulfonamide] | > 256 | > 256 | 256 (≈ 710 µM) | > 256 | > 256 | 0.25 (≈ 0.694 µM)
4 | O=S(=O)(NCc1ccc2cccc(NS(=O)(=O)c3ccc(C(F)(F)F)cc3)c2n1)c1ccccc1 [ZDR210, N-(2-(Phenylsulfonamidomethyl)quinolin-8-yl)-4-(trifluoromethyl)benzenesulfonamide] | > 256 | > 256 | > 256 | > 256 | > 256 | 0.25 (≈ 0.479 µM)
5 | COC(=O)c1ccc(S(=O)(=O)Nc2cccc3ccc(CN(C)C)nc23)cc1 [ZDR069, Methyl 4-(N-(2-((dimethylamino)methyl)quinolin-8-yl)sulfamoyl)benzoate] | > 256 | > 256 | 256 (≈ 641 µM) | > 256 | > 256 | 0.25 (≈ 0.626 µM)
6 | C#CCS(=O)(=O)Nc1cccc2ccc(CN(C)C)nc12 [ZDR506, N-(2-((Dimethylamino)methyl)quinolin-8-yl)prop-2-yne-1-sulfonamide] | > 256 | > 256 | > 256 | > 256 | 256 (≈ 844 µM) | 2 (≈ 6.59 µM)
7 | CN(C)Cc1ccc2cccc(NS(=O)(=O)c3cnn(C)c3)c2n1 [ZDR194, N-(2-((Dimethylamino)methyl)quinolin-8-yl)-1-methyl-1H-pyrazole-4-sulfonamide] | > 256 | > 256 | > 256 | > 256 | > 256 | 4 (≈ 11.6 µM)
8 | O=Cc1ccc2cccc(NS(=O)(=O)c3ccc(C(F)(F)F)cc3)c2n1 [ZDR019, N-(2-Formylquinolin-8-yl)-4-(trifluoromethyl)benzenesulfonamide] | 128 (≈ 337 µM) | 128 (≈ 337 µM) | 8 (≈ 21 µM) | 8 (≈ 21 µM) | 16 (≈ 42.1 µM) | 1 (≈ 2.63 µM)
9 | CN(C)Cc1ccc2cccc(NS(=O)(=O)c3cccc4nsnc34)c2n1 [ZDR196, N-(2-((Dimethylamino)methyl)quinolin-8-yl)benzo[c][1,2,5]thiadiazole-4-sulfonamide] | > 256 | > 256 | > 256 | 32 (≈ 80.1 µM) | 256 (≈ 641 µM) | 0.0625 (≈ 0.156 µM)
10 | N/C(=N\[N+](=O)[O-])NCc1ccc2cccc(NS(=O)(=O)c3ccc(C(F)(F)F)cc3)c2n1 [ZDR188, (E)-N-(2-((2-Nitroguanidino)methyl)quinolin-8-yl)-4-(trifluoromethyl)benzenesulfonamide] | > 256 | > 256 | > 256 | > 256 | > 256 | 0.5 (≈ 1.07 µM)
